Calls of active or inactive are those of the source. No cut-off for these calls is given here.
How the values were obtained:
MV4-11 [1] = test: Induction of apoptosis in human MV4-11 cells assessed as early apoptotic cells at 500 nM after 6 hrs by AnnexinV-FITC/propidium iodide staining based flow cytometry (reference value: 5.36 %); assay type: functional
MV4-11 [2] = test: Induction of apoptosis in human MV4-11 cells assessed as late apoptotic cells at 1000 nM after 6 hrs by AnnexinV-FITC/propidium iodide staining based flow cytometry (reference value: 4.29%); assay type: functional
[3] = target: T1, Protein cereblon/Cyclin-dependent kinase 9 (Homo sapiens, UniProt P50750+Q96SW2); test: Protac activity at CRBN/CDK9 in human MV4-11 cells assessed as induction of CDK9 degradation by measuring downregulation of CDK9 expression level at 250 nM by western blot analysis; assay type: cell-based; settings: time 1-12 hrs, TDE = time-dependent effect
[4] = target: T1, Protein cereblon/Cyclin-dependent kinase 9; test: Protac activity at CRBN/CDK9 in human MV4-11 cells assessed as induction of CDK9 degradation by measuring MCL-1 protein expression level at 250 nM measured after 12 hrs by western blot analysis; assay type: cell-based
[5] = target: T1, Protein cereblon/Cyclin-dependent kinase 9; test: Protac activity at CRBN/CDK9 in human MV4-11 cells assessed as induction of CDK9 degradation by measuring downregulation of CDK9 expression level at 250 nM measured after 1 hr by western blot analysis; assay type: cell-based
MV4-11 [6] = test: Induction of apoptosis in human MV4-11 cells assessed as late apoptotic cells at 500 nM after 6 hrs by AnnexinV-FITC/propidium iodide staining based flow cytometry (reference value: 4.29%); assay type: functional
MV4-11 [7] = test: Induction of apoptosis in human MV4-11 cells assessed as late apoptotic cells at 30 nM after 6 hrs by AnnexinV-FITC/propidium iodide staining based flow cytometry (reference value: 4.29%); assay type: functional
MV4-11 [8] = test: Induction of apoptosis in human MV4-11 cells assessed as total apoptotic cells at 250 nM after 6 hrs by AnnexinV-FITC/propidium iodide staining based flow cytometry (reference value: 9.75 %); assay type: functional
MV4-11 [9] = test: Induction of apoptosis in human MV4-11 cells assessed as total apoptotic cells at 100 nM after 6 hrs by AnnexinV-FITC/propidium iodide staining based flow cytometry (reference value: 9.75 %); assay type: functional
MV4-11 [10] = test: Induction of apoptosis in human MV4-11 cells assessed as viable cells at 30 nM after 6 hrs by AnnexinV-FITC/propidium iodide staining based flow cytometry (reference value: 90.1 %); assay type: functional; settings: read-out: Activity
MV4-11 [11] = test: Induction of apoptosis in human MV4-11 cells assessed as necrotic cells at 30 nM after 6 hrs by AnnexinV-FITC/propidium iodide staining based flow cytometry (reference value: 0.16 %); assay type: functional
MV4-11 [12] = test: Induction of apoptosis in human MV4-11 cells assessed as late apoptotic cells at 100 nM after 6 hrs by AnnexinV-FITC/propidium iodide staining based flow cytometry (reference value: 4.29%); assay type: functional
MV4-11 [13] = test: Induction of apoptosis in human MV4-11 cells assessed as necrotic cells at 250 nM after 6 hrs by AnnexinV-FITC/propidium iodide staining based flow cytometry (reference value: 0.16 %); assay type: functional
[14] = target: T1, Protein cereblon/Cyclin-dependent kinase 9; test: PROTAC activity at CRBN/CDK9 in human MV4-11 cells assessed as reduction in CDK9 protein expression at 100 nM measured after 3 hrs by whole proteome mass spectrometry; assay type: cell-based
[15] = Half life in BALB/c nude mouse xenografted with human MV4-11 cells at 5 mg/kg, iv by LC/MS/MS analysis; assay type: ADME, organism-based; settings: in vivo
MV4-11 [16] = test: Induction of apoptosis in human MV4-11 cells assessed as early apoptotic cells at 30 nM after 6 hrs by AnnexinV-FITC/propidium iodide staining based flow cytometry (reference value: 5.36 %); assay type: functional
[17] = target: Cyclin-dependent kinase 9 (Homo sapiens) (UniProt P50750); test: Inhibition of human full length recombinant CDK9 expressed in bacterial expression system assessed as remaining enzyme activity at 1 uM by competitive binding Kinome scan analysis
A549 = test: Antiproliferative activity against human A549 cells incubated for 72 hrs by MTT assay; assay type: functional, cell-based; settings: A549, 72 h
[18] = target: T1, Protein cereblon/Cyclin-dependent kinase 9; test: Protac activity at CRBN/CDK9 in human MV4-11 cells assessed as induction of CDK9 degradation at 250 nM pretreated for 2 hrs with proteasome inhibitor, MG132 followed by incubation with compound for 6 hrs by western blot analysis; assay type: cell-based
MV4-11 [19] = test: Induction of apoptosis in human MV4-11 cells assessed as necrotic cells at 100 nM after 6 hrs by AnnexinV-FITC/propidium iodide staining based flow cytometry (reference value: 0.16 %); assay type: functional
[20] = target: Protein cereblon/Cyclin-dependent kinase 6 (Homo sapiens) (UniProt Q00534+Q96SW2); test: PROTAC activity at CRBN/CDK6 in human MV4-11 cells assessed as induction of CDK6 degradation at 31.25 to 500 nM measured after 3 hrs by western blot analysis; assay type: cell-based; settings: dose 31.25-500 nM
MV4-11 [21] = test: Induction of apoptosis in human MV4-11 cells assessed as late apoptotic cells at 1 nM after 6 hrs by AnnexinV-FITC/propidium iodide staining based flow cytometry (reference value: 4.29%); assay type: functional
[22] = target: T1, Protein cereblon/Cyclin-dependent kinase 9; test: PROTAC activity at CRBN/CDK9 in human MV4-11 cells assessed as reduction in RNA PolII CTD phosphorylation at Ser2 residue measured after 6 hrs by western blot analysis; assay type: cell-based; settings: dose 31.25-8000 nM
[23] = target: T1, Protein cereblon/Cyclin-dependent kinase 9; test: Protac activity at CRBN/CDK9 in human MOLM-13 cells assessed as CDK9 degradation rate at 500 nM incubated for 6 hrs by Western blot assay relative to control; assay type: cell-based
MV4-11 [24] = test: Potency index, ratio of BAY-1143572 IC50 to test compound IC50 for antiproliferative activity against human MV4-11 cells incubated for 72 hrs by MTT assay; assay type: functional
[25] = target: T1, Protein cereblon/Cyclin-dependent kinase 9; test: Reversible PROTAC activity at CRBN/CDK9 in human MV4-11 cells assessed as CDK9 degradation at 250 nM incubated for 6 hrs followed by drug wash-out for 12 hrs by western blot analysis; assay type: cell-based
[26] = target: T1, Protein cereblon/Cyclin-dependent kinase 9; test: Protac activity at CRBN/CDK9 in human MV4-11 cells assessed as CDK9 degradation rate at 500 nM incubated for 6 hrs by Western blot assay relative to control; assay type: cell-based
MV4-11 [27] = test: Induction of apoptosis in human MV4-11 cells assessed as necrotic cells at 1000 nM after 6 hrs by AnnexinV-FITC/propidium iodide staining based flow cytometry (reference value: 0.16 %); assay type: functional
[28] = target: T1, Protein cereblon/Cyclin-dependent kinase 9; test: Protac activity at CRBN/CDK9 in human MV4-11 cells assessed as induction of CDK9 degradation at 250 nM pretreated for 2 hrs with E3 ligase cereblon ligand, pomalidomide followed by incubation with compound for 6 hrs by western blot analysis; assay type: cell-based
MV4-11 [29] = test: Induction of apoptosis in human MV4-11 cells assessed as viable cells at 100 nM after 6 hrs by AnnexinV-FITC/propidium iodide staining based flow cytometry (reference value: 90.1 %); assay type: functional; settings: read-out: Activity
MCF7 = test: Antiproliferative activity against human MCF7 cells incubated for 72 hrs by MTT assay; assay type: functional, cell-based; settings: MCF7, 72 h
MV4-11 [30] = test: Antiproliferative activity against human MV4-11 cells incubated for 72 hrs by MTT assay; assay type: functional, cell-based; settings: MV4-11, 72 h
HCT-116 = test: Antiproliferative activity against human HCT-116 cells incubated for 72 hrs by MTT assay; assay type: functional, cell-based; settings: HCT-116, 72 h

Activity [3]: Tde
Activity [4]: 0%
Activity [5]: Active
Activity [14]: Active
half-life [15]: 1.3 h
Activity [17]: < 10%
IC50 (A549): 1220 nM
Activity [18]: inactive
Activity [20]: inactive
Activity [22]: Dose-Dependent Effect
Activity [23]: 100%
Activity [25]: Active
Activity [26]: 100%
Activity [28]: inactive
IC50 (MCF7): 3120 nM
IC50 (MV4-11 [30]): 25 nM
IC50 (HCT-116): 3080 nM
SMILES: COc1cc(F)ccc1-c1ncnc(Nc2cccc(CS(C)(=O)=NC(=O)CCCCCCCC(=O)NCCNc3cccc4c3C(=O)N(C3CCC(=O)NC3=O)C4=O)c2)n1 (stereo not drawn)
Activity (MV4-11 [1]): 54.2%
Activity (MV4-11 [2]): 16%
Activity (MV4-11 [6]): 13.7%
Activity (MV4-11 [7]): 14.8%
Activity (MV4-11 [8]): 59.4%
Activity (MV4-11 [9]): 26.8%
viability at 0.03 µM (MV4-11 [10]): 77.6%
Activity (MV4-11 [11]): 0.28%
Activity (MV4-11 [12]): 15.3%
Activity (MV4-11 [13]): 0.47%
Activity (MV4-11 [16]): 7.46%
Activity (MV4-11 [19]): 0.47%
Activity (MV4-11 [21]): 14%
Ratio IC50 (MV4-11 [24]): 20
Activity (MV4-11 [27]): 0.4%
viability at 0.1 µM (MV4-11 [29]): 72.7%

From ChEMBL document CHEMBL4819004, “Discovery of selective CDK9 degraders with enhancing antiproliferative activity through PROTAC conversion” (Eur J Med Chem, 2021)
